Target: T1, human CGT (Homo sapiens, UniProt Q16880)
T1 sequence (Q16880 21-541): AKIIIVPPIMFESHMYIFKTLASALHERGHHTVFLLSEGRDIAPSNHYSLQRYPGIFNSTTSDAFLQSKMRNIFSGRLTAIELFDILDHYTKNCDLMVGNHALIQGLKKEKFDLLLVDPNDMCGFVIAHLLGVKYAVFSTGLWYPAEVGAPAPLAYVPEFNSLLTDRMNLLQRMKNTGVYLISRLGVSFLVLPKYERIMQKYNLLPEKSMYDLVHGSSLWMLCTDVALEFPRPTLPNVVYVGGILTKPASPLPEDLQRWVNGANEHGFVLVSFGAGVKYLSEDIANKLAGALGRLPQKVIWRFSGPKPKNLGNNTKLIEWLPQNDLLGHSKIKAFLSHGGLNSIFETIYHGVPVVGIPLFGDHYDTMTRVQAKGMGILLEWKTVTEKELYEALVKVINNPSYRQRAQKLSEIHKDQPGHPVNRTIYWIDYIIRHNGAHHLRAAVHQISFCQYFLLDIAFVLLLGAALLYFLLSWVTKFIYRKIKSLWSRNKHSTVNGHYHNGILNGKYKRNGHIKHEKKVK
Assay: Assay 1: CGT Enzymatic Assay (RapidFire/MS/MS, 0.01% Tween 80)
Assay type: biochemical
Settings: Table 1, Compounds of Formula (I) and Formula (II); CGT enzymatic assay, C6-NBD-dihydro-galactosylceramide readout; read-out: IC50

| Compound | IC50 |
| --- | --- |
| N#Cc1cccc(C2(O)N(c3ccc(Cl)cc3)C(=O)N(c3ccc(Cl)cc3)C23CC(F)(F)C3)c1 (stereo not shown) [Compound 305, 3-(5,7-bis(4-chlorophenyl)-2,2-difluoro-8-hydroxy-6-oxo-5,7-diazaspiro[3.4]octan-8-yl)benzonitrile] | < 1 µM |
| N#Cc1ccc(N2C(=O)N(c3ccc(Cl)cc3)C(O)(c3cccc(C#N)c3)C23CCC3)cc1 (stereo not shown) [Compound 268, 3-(7-(4-chlorophenyl)-5-(4-cyanophenyl)-8-hydroxy-6-oxo-5,7-diazaspiro[3.4]octan-8-yl)benzonitrile] | < 1 µM |
| Cc1ccc(N2C(=O)N(c3ccc(C#N)cc3)C3(CCC3)C2(O)c2cccc(OC(F)(F)F)c2)cc1 (stereo not shown) [Compound 279, 4-(8-hydroxy-6-oxo-7-(p-tolyl)-8-(3-(trifluoromethoxy)phenyl)-5,7-diazaspiro[3.4]octan-5-yl)benzonitrile] | < 1 µM |
| N#Cc1ccc(N2C(=O)N(c3ccc(Cl)cc3)C3(CCC3)C2(O)c2cccc(OC(F)(F)F)c2)cc1 (stereo not shown) [Compound 288, 4-(5-(4-chlorophenyl)-8-hydroxy-6-oxo-8-(3-(trifluoromethoxy)phenyl)-5,7-diazaspiro[3.4]octan-7-yl)benzonitrile] | < 1 µM |
| COc1ccc(N2C(=O)N(c3ccc(OC)cc3)C(O)(c3cccc(C#N)c3)C2C(C)C)cc1 (stereo not shown) [Example 330, 3-(4-hydroxy-5-isopropyl-1,3-bis(4-methoxyphenyl)-2-oxoimidazolidin-4-yl)benzonitrile] | < 1 µM |
| Cc1ccc(N2C(=O)N(c3ccc(C#N)cc3)C(C)(C)C2(O)c2cccc(OC(F)(F)F)c2)cc1 (stereo not shown) [Example 312, 4-(4-hydroxy-5,5-dimethyl-2-oxo-3-(p-tolyl)-4-(3-(trifluoromethoxy)phenyl)imidazolidin-1-yl)benzonitrile] | < 1 µM |
| COCC1(C)N(c2ccc(Cl)cc2)C(=O)N(c2ccc(Cl)cc2)C1(O)c1cccc(C#N)c1 (stereo not shown) [Compound 297, 3-(1,3-bis(4-chlorophenyl)-4-hydroxy-5-(methoxymethyl)-5-methyl-2-oxoimidazolidin-4-yl)benzonitrile] | < 1 µM |
| Cc1ccc(N2C(=O)N(c3ccc(C#N)cc3)C(O)(c3cccc(OC(F)(F)F)c3)C23COC3)cc1 (stereo not shown) [Example 307, 4-(8-hydroxy-6-oxo-5-(p-tolyl)-8-(3-(trifluoromethoxy)phenyl)-2-oxa-5,7-diazaspiro[3.4]octan-7-yl)benzonitrile] | < 1 µM |
| N#Cc1ccc(N2C(=O)N(c3ccc(Br)cc3)C(O)(c3cccc(OC(F)(F)F)c3)C23CCCC3)cc1 (stereo not shown) [Example 325, 4-(3-(4-bromophenyl)-4-hydroxy-2-oxo-4-(3-(trifluoromethoxy)phenyl)-1,3-diazaspiro[4.4]nonan-1-yl)benzonitrile] | < 1 µM |
| N#Cc1ccc(N2C(=O)N(c3ccc(Cl)cc3)C3(COC3)C2(O)c2cccc(OC(F)(F)F)c2)cc1 (stereo not shown) [Compound 274, 4-(5-(4-chlorophenyl)-8-hydroxy-6-oxo-8-(3-(trifluoromethoxy)phenyl)-2-oxa-5,7-diazaspiro[3.4]octan-7-yl)benzonitrile] | < 1 µM |
| CCC1(CC)N(c2ccc(Cl)cc2)C(=O)N(c2ccc(Cl)cc2)C1(O)c1cccc(C#N)c1 (stereo not shown) [Example 321, 3-(1,3-bis(4-chlorophenyl)-5,5-diethyl-4-hydroxy-2-oxoimidazolidin-4-yl)benzonitrile] | < 1 µM |
| Cc1ccc(N2C(=O)N(c3ccc(C#N)cc3)C(O)(c3cccc(C#N)c3)C23COC3)cc1 (stereo not shown) [Example 308, 3-(7-(4-cyanophenyl)-8-hydroxy-6-oxo-5-(p-tolyl)-2-oxa-5,7-diazaspiro[3.4]octan-8-yl)benzonitrile] | < 1 µM |

Same assay, conditions: Table 1, Compounds of Formula (I) and Formula (II); CGT enzymatic assay; read-out: IC50

| Compound | IC50 |
| --- | --- |
| N#Cc1cccc(C2(O)[C@H](C3CC3)N(c3ccc(Cl)cc3)C(=O)N2c2ccc(Cl)cc2)c1 (stereo partly drawn) [Example 187-1, 3-((5S)-1,3-bis(4-chlorophenyl)-5-cyclopropyl-4-hydroxy-2-oxoimidazolidin-4-yl)benzonitrile] | < 1 µM |
| O=C1N(c2ccc(Cl)cc2)C(=O)C(O)(c2ccccc2)N1c1ccc(Cl)cc1 (stereo not shown) [Compound 147, 1,3-bis(4-chlorophenyl)-5-hydroxy-5-phenylimidazolidine-2,4-dione] | 10 to 50 µM |
| O=C1N(c2ccc(Br)cc2)C(O)[C@@](c2ccccc2)(C2CC2)N1c1ccc(Br)cc1 (stereo partly drawn) [Example 209-1, (4S)-1,3-bis(4-bromophenyl)-4-cyclopropyl-5-hydroxy-4-phenylimidazolidin-2-one] | 10 to 50 µM |
| O=C1N(c2ccc(Br)cc2)C(=O)C(O)(c2ccc(F)cc2)N1c1ccc(Br)cc1 (stereo not shown) [Example 172, 1,3-bis(4-bromophenyl)-5-(4-fluorophenyl)-5-hydroxyimidazolidine-2,4-dione] | 10 to 50 µM |
| C[C@@H]1N(c2ccc(Br)cc2)C(=O)N(c2ccc(Br)cc2)C1(O)c1cccs1 (stereo partly shown) [Example 49-1] | 1 to 10 µM |
| Cc1cccc(C2(O)[C@H](C)N(c3ccc(Br)cc3)C(=O)N2c2ccc(Br)cc2)c1 (stereo partly shown) [Example 29-1] | < 1 µM |
| O=C1N(c2ccc(Br)cc2)C(=O)C(O)(c2nccs2)N1c1ccc(Br)cc1 (stereo not shown) [Example 201, 1,3-bis(4-bromophenyl)-5-hydroxy-5-(thiazol-2-yl)imidazolidine-2,4-dione] | > 50 µM |
| O=C1N(c2ccc(F)cc2)CC(O)(c2ccccc2)N1c1ccc(F)cc1 (stereo not shown) [Example 11, 1,3-bis(4-fluorophenyl)-4-hydroxy-4-phenylimidazolidin-2-one] | > 50 µM |
| CC1(C(F)(F)F)N(c2ccc(Cl)cc2)C(=O)N(c2ccc(Cl)cc2)C1(O)c1cccc(OC(F)(F)F)c1 (stereo not shown) [Example 159, 1,3-bis(4-chlorophenyl)-4-hydroxy-5-methyl-4-(3-(trifluoromethoxy)phenyl)-5-(trifluoromethyl)imidazolidin-2-one] | < 1 µM |
| CCC[C@@H]1N(c2ccc(Br)cc2)C(=O)N(c2ccc(Br)cc2)C1(O)c1cccc(C)c1 (stereo partly drawn) [Compound 96-1, (5S)-1,3-bis(4-bromophenyl)-4-hydroxy-5-propyl-4-(m-tolyl)imidazolidin-2-one] | < 1 µM |
| CCCc1c(-c2cccc(OC(F)(F)F)c2)n(-c2ccc(Br)cc2)c(=O)n1-c1ccc(Br)cc1 [Compound 248, 1,3-bis(4-bromophenyl)-4-propyl-5-(3-(trifluoromethoxy)phenyl)-1,3-dihydro-2H-imidazol-2-one] | < 1 µM |
| O=C1N(c2ccc(Cl)cc2)CC(O)(c2cc(Cl)cc(Cl)c2)N1c1ccc(Cl)cc1 (stereo not shown) [Compound 85, 1,3-bis(4-chlorophenyl)-4-(3,5-dichlorophenyl)-4-hydroxyimidazolidin-2-one] | 1 to 10 µM |
| C[C@@]1(c2ccccc2)N(c2ccc(Cl)cc2)C(=O)N(c2ccc(Cl)cc2)[C@@]1(O)c1ccccc1 [Compound 121-2, (4R,5S)-1,3-bis(4-chlorophenyl)-4-hydroxy-5-methyl-4,5-diphenylimidazolidin-2-one] | > 50 µM |
| C[C@]1(c2cccc(Cl)c2)C(O)N(c2ccc(Cl)cc2)C(=O)N1c1ccc(Cl)cc1 (single isomer, unassigned) [Compound 149-1] | 1 to 10 µM |
| CCc1c(-c2ccccc2)n(-c2ccc(Br)cc2)c(=O)n1-c1ccc(Br)cc1 [Compound 264, 1,3-bis(4-bromophenyl)-4-ethyl-5-phenyl-1,3-dihydro-2H-imidazol-2-one] | < 1 µM |
| CC1N(c2ccc(Br)cc2)C(=O)N(c2ccc(Br)cc2)C1(O)c1ccccc1 (stereo not shown) [Example 13] | < 1 µM |
| CC1(O)CN(c2ccc(Br)cc2)C(=O)N1c1ccc(Br)cc1 (stereo not shown) [Example 2, 1,3-bis(4-bromophenyl)-4-hydroxy-4-methylimidazolidin-2-one] | > 50 µM |
| CC#Cc1cccc(C2(O)[C@H](C)N(c3ccc(Cl)cc3)C(=O)N2c2ccc(Cl)cc2)c1 (stereo partly drawn) [Compound 103-1, (5S)-1,3-bis(4-chlorophenyl)-4-hydroxy-5-methyl-4-(3-(prop-1-yn-1-yl)phenyl)imidazolidin-2-one] | < 1 µM |
| Cc1cc(C)cc(C2(O)C(C)N(c3ccc(Br)cc3)C(=O)N2c2ccc(Br)cc2)c1 (stereo not shown) [Example 42] | < 1 µM |
| COc1ccc(C2(O)C(=O)N(c3ccc(Br)cc3)C(=O)N2c2ccc(Br)cc2)cn1 (stereo not shown) [Example 202, 1,3-bis(4-bromophenyl)-5-hydroxy-5-(6-methoxypyridin-3-yl)imidazolidine-2,4-dione] | 10 to 50 µM |
| CC(=O)c1cccc(C2(O)[C@@H](C)N(c3ccc(Cl)cc3)C(=O)N2c2ccc(Cl)cc2)c1 (stereo partly drawn) [Compound 136-2, (5R)-4-(3-acetylphenyl)-1,3-bis(4-chlorophenyl)-4-hydroxy-5-methylimidazolidin-2-one] | < 1 µM |
| Cc1ccc(C2(O)CN(c3ccc(Br)cc3)C(=O)N2c2ccc(Br)cc2)cc1 (stereo not shown) [Example 23, 1,3-bis(4-bromophenyl)-4-hydroxy-4-(p-tolyl)imidazolidin-2-one] | > 50 µM |
| O=C1N(c2ccc(Cl)c(Cl)c2)CC(O)(c2ccccc2)N1c1ccc(Cl)c(Cl)c1 (stereo not shown) [Example 32, 1,3-bis(3,4-dichlorophenyl)-4-hydroxy-4-phenylimidazolidin-2-one] | 1 to 10 µM |
| CCc1cccc(C2(O)[C@@H](C)N(c3ccc(Cl)cc3)C(=O)N2c2ccc(Cl)cc2)c1 (stereo partly drawn) [Compound 69-2, (5R)-1,3-bis(4-chlorophenyl)-4-(3-ethylphenyl)-4-hydroxy-5-methylimidazolidin-2-one] | < 1 µM |
| O=C1N(c2ccc(Cl)cc2)C(c2ccccc2)C(O)(CO)N1c1ccc(Cl)cc1 (stereo not shown) [Example 218, 1,3-bis(4-chlorophenyl)-4-hydroxy-4-(hydroxymethyl)-5-phenylimidazolidin-2-one] | 10 to 50 µM |
